{
  "source": "paper PMC11795529",
  "about": "“Simulation of Antral Conditions for Estimating Drug Apparent Equilibrium Solubility after a High-Calorie, High-Fat Meal” (Molecular Pharmaceutics, 2025)",
  "key": {"[1]": {"settings": "cited from earlier work"}, "[2]": {"settings": "cited from earlier work; for Ketoconazole Concentration, Mean: three samples"}, "[3]": {"assay": "Shake-flask apparent equilibrium solubility in biorelevant media (FeSSGF-V2, FEDGAS pH 3, FeSSGF-V3)", "type": "physicochemical", "description": "Biorelevant media were prepared on the day of the solubility measurements.\nFEDGAS1/2 pH = 3 (Level II biorelevance[5]) was prepared as FEDGAS pH = 3 but with half the amount of FEDGASgel, i.e., by using 7.65 g of FEDGASgel/90 mL.\nFEDGAS1/4 pH = 3 (Level II biorelevance[5]) was prepared as FEDGAS pH = 3 but with 1/4 of the amount of FEDGASgel, i.e., by using 3.825 g of FEDGASgel/90 mL.\nFEDGASbuffer pH = 3 (Level I biorelevance[5]) was prepared by diluting FEDGAS buffer concentrate with distilled water, as indicated in Table 3.\nIn Level III FeSSGF-V3, the presence of proteins was simulated using Régilait Skimmed Milk Powder. The high-calorie, high-fat meal consists of up to about 1000 kcal and ≈15% of the total amount of calories is derived from proteins.[15],[16] If 1 g of protein corresponds to 4 kcal, then the meal contains up to about 37 g of proteins. Based on phenol red data, after a high-calorie, high-fat meal and a glass of water 30 min after initiation of meal intake, the impact of resting gastric contents/swallowed saliva/gastric secretions on the dilution of antral contents is substantial; however, dilution of contents occurs predominantly during meal administration.[8] Specifically, when 100 mg of phenol red was included in the meal, the mean phenol red concentration in the antrum fluctuated around 0.06 mg/mL for at least 3 h after initiation of meal administration.[6] It can, therefore, be assumed that the protein concentration in the antral region would be about 37 g × (0.06 mg/mL/100 mg) = 0.0222 g/mL ≈ 22 mg/mL. Since Régilait contains 36% w/w proteins, Régilait Skimmed Milk Powder 6.1% w/v in medium is equivalent to 2.196% (w/v) protein concentration, i.e., ≈ 22 mg/mL."}, "[4]": {"settings": "Level III FeSSGF-V3HCl and HGFfed15 sample, 37 °C, shake-flask"}, "[5]": {"assay": "Shake-flask apparent equilibrium solubility in pooled human antral aspirates (HGFfed) collected after a high-calorie, high-fat meal and water", "type": "physicochemical", "settings": "pooled antral (gastric) aspirates, fed state"}, "[6]": {"set-up": "method as in PMID 19644845", "settings": "cited from earlier work"}, "physchem": {"assay": "physchem", "settings": "for solubility thermodynamic at 4 h: human, pooled antral (gastric) aspirates, fed state, thermodynamic from solid; for solubility: simple aqueous solution"}},
  "note": "“And” between values parts separate entries of the source, which are not always exact repeats. Identical values can stand only once. Like-named read-outs stand apart in the source and are kept apart here.",
  "data": [
    {"smiles": "C#C[C@]1(O)CC[C@H]2[C@@H]3CCC4=Cc5oncc5C[C@]4(C)[C@H]3CC[C@@]21C", "note": "[Danazol]", "values": [
      {"measurement": "logP", "setting": "[1]", "result": 4.53},
      {"measurement": "Danazol Concentration", "setting": "[2]; Level II FeSSIF, 1st filtration, samples 1, 2, 3 in order", "result": "26.61 µg/mL and 26.22 µg/mL and 26.44 µg/mL"},
      {"measurement": "Danazol Concentration", "setting": "[2]; Level II FeSSIF, 2nd filtration, samples 1, 2, 3 in order", "result": "26.34 µg/mL and 25.39 µg/mL and 25.44 µg/mL"},
      {"measurement": "adsorption on regenerated cellulose filter", "setting": "[2]; Level II FeSSIF", "result": "negligible adsorption"},
      {"measurement": "% adsorbed", "setting": "[2]; Level II FeSSIF, samples 1, 2, 3 in order", "result": "1.04% and 3.18% and 3.78%"}
    ]},
    {"smiles": "CC(=O)N1CCN(c2ccc(OCC3COC(Cn4ccnc4)(c4ccc(Cl)cc4Cl)O3)cc2)CC1", "note": "(stereo not drawn) [Ketoconazole]", "values": [
      {"measurement": "aqueous solubility at pHeq as share of measured apparent solubility", "setting": "HGFfed45", "result": 21, "unit": "%"},
      {"measurement": "aqueous solubility at pHeq as share of measured apparent solubility", "setting": "HGFfed75", "result": 22, "unit": "%"},
      {"measurement": "aqueous solubility at pHeq as share of measured apparent solubility", "setting": "HGFfed105", "result": 18, "unit": "%"},
      {"measurement": "aqueous solubility at pHeq as share of measured apparent solubility", "setting": "HGFfed135", "result": 18, "unit": "%"},
      {"measurement": "times higher than the point estimate of intragastric solubility", "setting": "[3]; FEDGAS1/2 pH = 3 and FEDGAS1/4 pH = 3 vs 3 mg/mL", "result": "more than 1.6 times"},
      {"measurement": "times higher than the point estimate of intragastric solubility", "setting": "[3]; FEDGAS pH = 3 vs 3 mg/mL", "result": "more than 2.5 times"},
      {"measurement": "percent higher than the point estimate for intragastric solubility", "setting": "[3]; FEDGASbuffer pH 3 vs 3 mg/mL", "result": 50, "unit": "%"},
      {"measurement": "percent lower than the point estimate for intragastric solubility", "setting": "[3]; Level I FeSSGF-V2 vs 3 mg/mL", "result": 30, "unit": "%"},
      {"measurement": "solubility thermodynamic at 4 h", "setting": "[3]; Level I FeSSGF-V3acetates, pH 3, Level I FeSSGF-V3acetates, initial pH 3, pHeq 3.7", "result": 3200, "unit": "µg/mL"},
      {"measurement": "percent lower than the point estimate for intragastric solubility", "setting": "[3]; Level II FeSSGF-V2 vs 3 mg/mL", "result": "more than 40%"},
      {"measurement": "solubility thermodynamic at 4 h", "setting": "[3]; Level II FeSSGF-V3acetates, pH 3, Level II FeSSGF-V3acetates, initial pH 3, pHeq 3.7", "result": 3450, "unit": "µg/mL"},
      {"measurement": "solubility thermodynamic at 4 h", "setting": "[3]; Level III FeSSGF-V3HCl, pH 3, Level III FeSSGF-V3HCl, initial pH 3, pHeq 3.8", "result": 3730, "unit": "µg/mL"},
      {"measurement": "percent higher than the estimated point solubility in antral contents", "setting": "[3]; Level III FeSSGF-V3 prepared with hydrochloric acid", "result": 24, "unit": "%"},
      {"measurement": "solubility thermodynamic at 4 h", "setting": "[3]; biorelevant medium, 37 °C, pH 3, fassgf or other biorelevant, thermodynamic from solid, FEDGAS1/2 pH = 3 (Level II), mean(SD), n = 3", "result": 5650, "unit": "µg/mL"},
      {"measurement": "solubility thermodynamic at 4 h", "setting": "[3]; biorelevant medium, 37 °C, pH 3, fassgf or other biorelevant, thermodynamic from solid, FEDGAS1/4 pH = 3 (Level II), mean(SD), n = 3", "result": 5070, "unit": "µg/mL"},
      {"measurement": "solubility thermodynamic at 4 h", "setting": "[3]; biorelevant medium, 37 °C, pH 3, fassgf or other biorelevant, thermodynamic from solid, FEDGAS pH = 3 (Level II), mean(SD), n = 3", "result": 7570, "unit": "µg/mL"},
      {"measurement": "solubility thermodynamic at 4 h", "setting": "[3]; biorelevant medium, 37 °C, pH 3, fassgf or other biorelevant, thermodynamic from solid, Level II FeSSGF-V2, pH 3, mean(SD), n = 3", "result": 1640, "unit": "µg/mL"},
      {"measurement": "solubility thermodynamic at 4 h", "setting": "[3]; biorelevant medium, pH 3, FEDGASbuffer pH 3 (Level I), mean(SD), n = 3", "result": 4600, "unit": "µg/mL"},
      {"measurement": "solubility thermodynamic at 4 h", "setting": "[3]; biorelevant medium, pH 3, Level I FeSSGF-V2, pH 3, mean(SD), n = 3", "result": 2140, "unit": "µg/mL"},
      {"measurement": "incubation time within which equilibrium is achieved", "setting": "[4]", "result": "≤ 4", "unit": "h"},
      {"measurement": "intrinsic aqueous solubility", "setting": "[1]", "result": "≈ 2 μg/mL"},
      {"measurement": "solubility at 4 h", "setting": "[5]; 37 °C, plasma or biological fluid, thermodynamic from solid, from the four mean values in HGFfed45, 75, 105, 135, read-out: grand mean apparent solubility in HGFfed", "result": 2290, "unit": "µg/mL"},
      {"measurement": "solubility thermodynamic at 4 h", "setting": "[5]; HGFfed45, 75, 105, 135, 37 °C, 4 h, mean(SD), read-out: mean apparent equilibrium solubility in pooled aspirates, range over the four HGFfed samples", "result": "770 to 3670", "unit": "µg/mL"},
      {"measurement": "apparent solubility in human antral fluids", "setting": "[6]; 30 min after 500 mL Ensure Plus, pHeq 5.7", "result": 630, "unit": "µg/mL"},
      {"measurement": "apparent solubility in human antral fluids", "setting": "[6]; 60 min after 500 mL Ensure Plus, pHeq 5.1", "result": 3150, "unit": "µg/mL"},
      {"measurement": "apparent solubility in human antral fluids", "setting": "[6]; 120 min after 500 mL Ensure Plus, pHeq 4.9", "result": 4700, "unit": "µg/mL"},
      {"measurement": "adsorption on regenerated cellulose filter", "setting": "[2]; aqueous buffers pH 3.5 to 5", "result": "negligible adsorption"},
      {"measurement": "Ketoconazole Concentration, Mean", "setting": "[2]; pH 3.5, 1st filtration", "result": 2.8763, "unit": "mg/mL"},
      {"measurement": "Ketoconazole Concentration, Mean", "setting": "[2]; pH 3.5, 2nd filtration", "result": 2.8250, "unit": "mg/mL"},
      {"measurement": "% adsorbed", "setting": "[2]; pH 3.5", "result": 1.63, "unit": "%"},
      {"measurement": "Ketoconazole Concentration, Mean", "setting": "[2]; pH 4.0, 1st filtration", "result": 0.9297, "unit": "mg/mL"},
      {"measurement": "Ketoconazole Concentration, Mean", "setting": "[2]; pH 4.0, 2nd filtration", "result": 0.9288, "unit": "mg/mL"},
      {"measurement": "% adsorbed", "setting": "[2]; pH 4.0", "result": 0.23, "unit": "%"},
      {"measurement": "Ketoconazole Concentration, Mean", "setting": "[2]; pH 5.0, 1st filtration", "result": 0.0825, "unit": "mg/mL"},
      {"measurement": "Ketoconazole Concentration, Mean", "setting": "[2]; pH 5.0, 2nd filtration", "result": 0.0775, "unit": "mg/mL"},
      {"measurement": "% adsorbed", "setting": "[2]; pH 5.0", "result": 6.16, "unit": "%"},
      {"measurement": "solubility thermodynamic", "setting": "physchem; aqueous phase, pH 3.7", "result": 1290, "unit": "µg/mL"},
      {"measurement": "solubility thermodynamic at 4 h", "setting": "physchem; pH 4, plasma or biological fluid", "result": 3000, "unit": "µg/mL"},
      {"measurement": "solubility thermodynamic at 4 h", "setting": "physchem; pH 4.1, plasma or biological fluid", "result": 2340, "unit": "µg/mL"},
      {"measurement": "solubility thermodynamic at 4 h", "setting": "physchem; pH 4.2, plasma or biological fluid", "result": 1470, "unit": "µg/mL"},
      {"measurement": "solubility thermodynamic at 4 h", "setting": "physchem; pH 4.6, plasma or biological fluid", "result": 610, "unit": "µg/mL"},
      {"measurement": "solubility thermodynamic at 4 h", "setting": "physchem; plasma or biological fluid", "result": 1850, "unit": "µg/mL"},
      {"measurement": "solubility", "setting": "physchem; pH 4", "result": 650, "unit": "µg/mL"},
      {"measurement": "solubility", "setting": "physchem; pH 4.1", "result": 520, "unit": "µg/mL"},
      {"measurement": "solubility", "setting": "physchem; pH 4.2", "result": 410, "unit": "µg/mL"},
      {"measurement": "solubility", "setting": "physchem; pH 4.6", "result": 170, "unit": "µg/mL"}
    ]}
  ]
}
